Earlier results as cited in patent publication US20250288604A1, “SUGAR-CONJUGATED LIPID NANOPARTICLES FOR TARGETED DELIVERY OF SIRNA TO HEPATOCYTES” (University of Virginia Patent Foundation, priority 2022, published 2025).

Conditions: single ionizable lipid

Row | SMILES | pKa
1 | CCCCCCCCC(CCCCCC)C(=O)OCCCCCCN(CCCCO)CCCCCCOC(=O)C(CCCCCC)CCCCCCCC (stereo not drawn) [ALC-0315] | 6.09
2 | CCCCC/C=C\C/C=C\CCCCCCCCC(CCCCCCCC/C=C\C/C=C\CCCCC)OC(=O)CCCN(C)C [DLinMc3DMA, (6Z,9Z,28Z,31Z)-Heptatriaconta-6,9,28,31-tetraen-19-yl 4-(dimethylamino) butanoate] | 6.44
3 | CCCCCCCCCCCOC(=O)CCCCCN(CCO)CCCCCCCC(=O)OC(CCCCCCCC)CCCCCCCC [SM-102] | 6.75
